The values below come from publication PMC9241686 (Microbiology Spectrum, 2022).

Where two headings read alike, the source gives them in different places.

The test system of assay [1] is macrophages (RAW 264.7). In words: cells. The class given is cell-based, murine. The conditions noted are these: RAW 264.7 infected macrophages, high-content assay, 72 h; for IC50: Mus musculus, RAW264.7, read-out: Macrophage IC50.
Assay [2] has as its system extracellular M. tuberculosis. The experiment in a line: microbe, parasite or virus in culture. It counts as cell-based. The conditions noted are these: Mycobacterium tuberculosis.
For assay [3], the system named is HepG2 cells. In words: cells. To be noted: 72 h, CellTiter-Glo; for IC50: Homo sapiens, HepG2. It counts as cell-based, human. For orientation: ATP-based viability assays read luminescence as a measure of living cells.
In assay [4] the test system is intracellular M. tuberculosis. The experiment in a line: microbe, parasite or virus in culture. The class given is cell-based, Mycobacterium tuberculosis. To be noted: for IC50 / Intracellular TB IC50: M. tuberculosis in RAW 264.7, high-content assay, 72 h; for IC50: read-out: Intracellular TB IC50; for selectivity index (SI): cytotoxicity IC50 over intracellular M. tuberculosis IC50; for fold difference between extracellular and intracellular IC50: extracellular versus intracellular M. tuberculosis.

Assay [5] deals with extracellular M. tuberculosis. In words: microbe, parasite or virus in culture. The class given is cell-based, Mycobacterium tuberculosis. To be noted: for IC50: Mycobacterium tuberculosis, 168 h, read-out: Cholesterol IC50; for Fold-change: glucose IC50 versus cholesterol IC50.
The subject of assay [6] is macrophages (RAW 264.7). More on the design: method as in PMID 35046812. The conditions noted are these: RAW 264.7 infected macrophages, high-content assay; primary screen hits; read-out: Macrophage IC50; cited from earlier work.
The subject of assay [7] is intracellular M. tuberculosis. More on the design: method as in PMID 35046812. The conditions noted are these: M. tuberculosis in RAW 264.7, high-content assay; primary screen hits; read-out: Intracellular TB IC50; cited from earlier work.
In assay [8] the test system is extracellular M. tuberculosis. More on the design: method as in PMID 35046812. The conditions noted are these: standard culture medium; primary screen hits; read-out: Extracellular TB IC50; cited from earlier work.
Assay [9] deals with HepG2 cells. Also noted: method as in PMID 35046812. The conditions noted are these: standard culture medium; primary screen hits; cited from earlier work.
[10] abbreviates: 120 h, read-out: Extracellular TB IC50.
Where [11] appears, read: Mycobacterium tuberculosis, RAW264.7, 72 h.
[12] abbreviates: glucose as carbon source, read-out: Glucose IC50.

`COc1ccc(C(F)(F)F)cc1NC(=O)Nc1cccc(Cl)c1` [Compound 28]: the values for the IC50 in assay [1], in assay [2] (setting [10]) and in assay [3] were 3 µM, 25 µM and 12 µM, respectively.

For `CCOc1ccc(NC(=S)NC)cc1` [Compound 8], the IC50 in [1] was above 100 µM; in assay [4], 10 µM; in assay [4] (setting [11]), below 20 µM; in [2] (setting [10]), 80 µM; in assay [3] it was above 100 µM.

`O=C(Nc1ccccc1)Nc1ccc(Cl)cc1` [Compound 33]: the IC50 in [1] is above 100 µM; in assay [4] (setting [11]), above 100 µM; in assay [2] (setting [10]), above 200 µM; in assay [3] it was above 100 µM.

`CCOc1ccc2nc(NC(=S)Nc3ccccc3)sc2c1` [Compound 16]: the half-inhibitory concentration (IC50) in [1] is 28 µM; in assay [4] it was 0.75 µM; in assay [4] (setting [11]) it was below 1 µM; in assay [2] (setting [10]) it was 26 µM; in [2] (setting [12]), 26 µM; in assay [3] it was 73 µM. Moreover, the half-inhibitory concentration (IC50) in [5] came out at 6.6 µM. The molecule also gave a Fold-change in assay [5] of 3.9.

Take `COc1ccc(NC(=S)Nc2ccccc2C(F)(F)F)cc1OC` [Compound 18]: the IC50 in assay [1] is above 100 µM; in assay [4] (setting [11]), above 100 µM; in assay [2] (setting [10]), above 200 µM; in [3] it was above 100 µM. Besides, the “Intracellular TB IC50” value in assay [4] was “inactive”.

As for `COc1ccc(NC(=S)Nc2ccccc2Cl)cc1` [Compound 15], the IC50 in [1] was above 100 µM; in assay [4] it was 14 µM; in assay [4] (setting [11]), below 20 µM; in assay [2] (setting [10]) it was above 200 µM; in assay [3] it was above 100 µM.

`O=C(Nc1cccc(Cl)c1)NC1CCCCC1` [Compound 35]: the IC50 was above 100 µM in assay [1], 4.5 µM in assay [4] (setting [11]), 28 µM in [2] (setting [10]) and above 100 µM in [3]. The “HepG2 IC50” value in [3] is given as “no cytotoxicity”.

Regarding `O=C(NC(=S)Nc1ccc2oc(-c3ccccc3)nc2c1)c1ccccc1` [Compound 27], the IC50 was 80 µM in assay [1], above 200 µM in assay [2] (setting [10]) and above 100 µM in assay [3]. Besides, the “selectivity index (SI)” value in assay [4] is on record as above 200. Also, in assay [4], the “fold difference between extracellular and intracellular IC50” value is given as above 500 fold.

For the molecule `FC(F)(F)c1cccc(NC(=S)NCCc2ccc(Cl)cc2)c1` [Compound 26], the IC50 in assay [1] stood at 9.3 µM; in assay [2] (setting [10]), 30 µM; in assay [3] it was 23 µM.

As for `CC(C)c1ccc(NC(=O)Nc2ccccc2)cc1` [Compound 38], the IC50 is 85 µM in assay [1], above 100 µM in [4] (setting [11]), above 200 µM in assay [2] (setting [10]) and 55 µM in [3].

Regarding `COc1ccc(NC(=S)Nc2ccc(Br)cc2)cc1` [Compound 24], the IC50 in [1] was 72 µM; in assay [4] (setting [11]) it was 2.1 µM; in assay [2] (setting [10]), 16 µM; in assay [3], above 100 µM. The “fold increase in potency” value in assay [4] (intracellular IC50, bromine replacing fluorine) was determined as 5 fold.

`CCOc1ccc(NC(=S)Nc2ccc(C)c(C#N)c2)cc1` [Compound 2]: the IC50 is 47 µM in assay [6], 300 nM in [7], 9.5 µM in assay [8] and 64 µM in [9].

`CNC(=O)Nc1ccc(Br)cc1` [Compound 31]: the IC50 is above 100 µM in [1], 64 µM in assay [4] (setting [11]), above 200 µM in assay [2] (setting [10]) and above 100 µM in assay [3].

Take `CC(C)(C)c1nnc(NC(=S)Nc2ccccc2)s1` [Compound 22]: the IC50 is above 100 µM in [1]; 0.51 µM in assay [4]; below 1 µM in assay [4] (setting [11]); 11 µM in assay [2] (setting [10]); 11 µM in assay [2] (setting [12]); above 99 µM in [3]. The IC50 in [5] was found to be 5.7 µM. The “selectivity index (SI)” value in assay [4] is above 200. In addition, in assay [4], the “fold difference between extracellular and intracellular IC50” value is recorded as above 20 fold. In assay [5], this molecule gave a Fold-change of 1.9.

`COc1ccc(NC(=S)Nc2ccccc2C)cc1` [Compound 12]: the IC50 in assay [1] is above 100 µM; in assay [4], 19 µM; in assay [4] (setting [11]), below 20 µM; in [2] (setting [10]) it was above 200 µM; in assay [3], above 100 µM.

Take `O=C(Nc1ccc(C(F)(F)F)cc1)Nc1cccc(Cl)c1` [Compound 4]: the IC50 is 1.8 µM in assay [6], 700 nM in assay [7], 15 µM in assay [8] and 5.6 µM in assay [9].

Consider `N#Cc1ccc(NC(=O)Nc2ccc(Cl)cc2)cc1` [Compound 39], for which the IC50 came to 3 µM in [1], 11 µM in assay [2] (setting [10]) and 6.5 µM in [3].

As to `COc1ccc(NC(=S)Nc2ccc(F)cc2)cc1` [Compound 20], the IC50 in [1] was above 100 µM; in assay [4] (setting [11]), 9.2 µM; in assay [2] (setting [10]), 91 µM; in assay [3], above 100 µM.

On to `Fc1cccc(NC(=S)Nc2ccccc2C(F)(F)F)c1` [Compound 7], for which the IC50 is 53 µM in [1], above 100 µM in [4] (setting [11]), above 200 µM in assay [2] (setting [10]) and 86 µM in assay [3].

Consider `O=C(Nc1ccc(Cl)cc1)Nc1ccc(Nc2ccccc2)cc1` [Compound 3], for which the IC50 in assay [6] was 68 µM; in assay [8], above 20 µM; in assay [9], above 100 µM.

As to `COc1cccc(NC(=O)Nc2ccc(C(F)(F)F)cc2)c1` [Compound 40], the figures for the IC50 in assay [1], in [2] (setting [10]) and in [3] were 5.2 µM, 31 µM and 11 µM, respectively.

With `CNC(=S)Nc1ccccc1` [Compound 10], the 50% inhibitory concentration (IC50) in [1] was above 100 µM; in assay [4] (setting [11]) it was above 100 µM; in assay [2] (setting [10]), above 200 µM; in [3] it was above 100 µM.

For the molecule `COc1ccc(NC(=S)Nc2ccc(C(N)=O)cc2)cc1` [Compound 13], the IC50 in [1] was above 100 µM; in assay [4] (setting [11]), above 100 µM; in assay [2] (setting [10]), above 200 µM; in assay [3], above 100 µM. For the same molecule, the “Intracellular TB IC50” value in assay [4] was “inactive”.

Turning to `CC(C)(C)c1nnc(NC(=O)Nc2ccc(Cl)cc2)s1` [Compound 34], the IC50 was above 100 µM in [1], 84 µM in assay [4] (setting [11]), above 200 µM in [2] (setting [10]) and above 100 µM in assay [3]. The “Intracellular TB IC50” value in [4] is given as “lost activity”.

`CCOc1ccc(NC(=S)Nc2ccccc2)cc1` [Compound 1]: the IC50 in assay [6] was above 100 µM; in assay [7], 400 nM; in assay [8], above 20 µM; in assay [9] it was above 100 µM.

Turning to `COc1cccc(NC(=S)Nc2cccc(C(F)(F)F)c2)c1` [Compound 25], the IC50 was found to be 17 µM in [1], 9.6 µM in [4] (setting [11]), 63 µM in assay [2] (setting [10]) and 24 µM in assay [3].

For the molecule `COc1ccc(NC(=O)Nc2nc3ccccc3s2)cc1` [Compound 30], the IC50 in assay [1] is 52 µM; in assay [2] (setting [10]), above 200 µM; in [3] it was 54 µM.

On to `CCOc1ccc(NC(=S)Nc2ccccc2C(=O)OC)cc1` [Compound 11], for which the figures for the half-maximal inhibitory concentration (IC50) in [1], in assay [2] (setting [10]) and in assay [3] were 46 µM, above 200 µM and above 100 µM, respectively.

Take `FC(F)(F)c1cccc(NC(=S)Nc2cccnc2)c1` [Compound 23]: the half-maximal inhibitory concentration (IC50) in [1] was found to be 30 µM; in assay [2] (setting [10]), 125 µM; in assay [3] it was 62 µM. In addition, in assay [1], the “Macrophage IC50” value is “cytotoxicity to macrophages”.

With `S=C(Nc1ccccc1)NC1CCCCC1` [Compound 9], the IC50 in assay [1] was above 100 µM; in assay [4] (setting [11]), above 100 µM; in [2] (setting [10]), 130 µM; in assay [3], above 100 µM. The “Intracellular TB IC50” value in [4] is recorded as “loss of intracellular activity”.

With `CCCc1nnc(NC(=S)Nc2ccccc2)s1` [Compound 21], in assay [4], the “selectivity index (SI)” value was above 200. In addition, the results for the half-inhibitory concentration (IC50) in assay [2] (setting [10]) and in assay [3] were 14.5 µM and above 100 µM, respectively.

Consider `COc1cc(NC(=S)Nc2ccc(C(F)(F)F)cc2)cc(OC)c1` [Compound 37], for which the IC50 is 29 µM in assay [1], above 200 µM in [2] (setting [10]) and 49 µM in [3].

With `Cc1cc(C)nc(NC(=N)Nc2ccc(Br)cc2)n1` [Compound 5], the IC50 in assay [6] was 18 µM; in assay [7] it was 1300 nM; in assay [8], 8.2 µM; in [9], 22 µM.

In the case of `COc1ccc2nc(NC(=O)Nc3ccc(Cl)cc3)sc2c1` [Compound 29], the IC50 was 56 µM in assay [1], above 200 µM in assay [2] (setting [10]) and above 100 µM in assay [3].

Take `Cc1nnc(NC(=O)Nc2ccccc2)s1` [Compound 36]: the half-maximal inhibitory concentration (IC50) is above 100 µM in [1], above 100 µM in [4] (setting [11]), above 200 µM in [2] (setting [10]) and above 100 µM in assay [3].

`S=C(Nc1ccccc1)Nc1ccc(Cl)cc1` [Compound 17]: the IC50 in [1] is 42 µM; in [4] it was 16 µM; in assay [4] (setting [11]) it was below 20 µM; in assay [2] (setting [10]), 104 µM; in assay [3], 91 µM.

In general, IC50 refers to the point on the concentration scale where inhibition reaches its midpoint.
